Patent US20080275110A1, “Sesamin/Episesamin Compositions” (priority 2004, published 2008)

Legend:
[1] = Oral absorption of episesamin and its transfer into blood circulation (I), LC-MS/MS of plasma; design: species or system SD (IGS) male rats; details: male, SD (IGS), rat, in vivo, 10 mg/kg
Procedure: (§1) SD (IGS) male rats (6-wk old) were purchased from CHARLES RIVER JAPAN INC. and habituated in the test environment for a week; the animals that were seen to grow normally were subjected to the test. The rats fasted overnight were divided into six groups each consisting of 5 heads; the high purity sesamin and episesamin obtained in Example 1 were incorporated at varying weight ratios of 6:4, 5:5, 4:6, 3:7, 1:9 and 0:10 to prepare sesamin/episesamin mixtures, which were dissolved in olive oil at a dose of 10 mg/kg and administered perorally to the rats via a feeding tube. […] After adding an internal standard, solid-phase extraction was performed with Oassis HLB and the liquid extract was concentrated under vacuum, suspended in methanol, passed through a filter, and subjected to LC-MS/MS for quantification of sesamin and episesamin. The quantity of sesamin or episesamin was determined from the ratio between the peak area of sesamin or episesamin and that of UDESMIN (Funakoshi Co, Ltd.) used as the internal standard. […]
The concentration of episesamin in blood peaked in about 6 hours after the administration, then decreased gradually until it became almost undetectable in 24 hours. From the blood concentration curve for 0-24 hours, the area under the curve (AUC) was determined as an index of absorbed quantity. […]

[2] = Oral absorption of episesamin and its transfer into blood circulation (II), lowered sesamin ratios; design: species or system rats; details: male, SD (IGS), rat, in vivo, 10 mg/kg
Procedure: as §1
With a view to prescribing effective mixing ratios of sesamin, the action of further lowered ratios of sesamin was evaluated in accordance with the method of Example 2. […]

[3] = test system: Deoxycorticosterone Acetate-Salt (DOCA-Salt) Induced Hypertension Model Rats; experiment: Blood pressure lowering action in DOCA-salt induced hypertension model rats (tail-cuff SBP); assay type: in vivo, SD male rats; details: 100 mg/kg single oral; for changes in blood pressure for 24 hours after the single administration: Example 4, FIG. 3, n=5-7; for changes in blood pressure 8 hours after the administration: Example 4, FIG. 4
Procedure: SD male rats (6-wk old) (purchased from Japan SLC, Inc.) were subjected to surgery for removing the right kidney under anesthetization with Nembutal. After recuperation for a week, the rats were administered subcutaneously with DOCA-salt twice a week at a dose of 15 mg/kg, and allowed to drink 1% saline. The systolic blood pressure (SBP) of each animal was measured by a tail-cuff method with a non-invasive automatic blood pressure measuring apparatus (BP-98A, Softron, Tokyo). At 5 weeks after the start of treatment with DOCA-salt, blood pressure was measured and the animals in which adequate elevation of blood pressure was verified were used in the following experiment. Rats fasted for 8 hours were divided into a control group and three test groups. The control group was administered olive oil only. For the test groups, the high purity sesamin and episesamin obtained in Example 1 were incorporated at varying weight ratios of 10:0, 5:5 and 0:10 to prepare sesamin/episesamin mixtures, which were suspended in olive oil at a dose of 100 mg/kg. Single oral administration of olive oil or the suspension was effected via a feeding tube. Both before the administration and 2, 4, 6, 8, 10, 12 and 24 hours after the administration, SBP measurement was conducted. Diet was applied after the blood pressure measurement at 12 hours. Testing was conducted at 1-wk intervals and the same head was subjected to no more than three measurements.
Sesamin and episesamin were incorporated at varying weight ratios of 5:5, 3:7 and 1:9 to prepare sesamin/episesamin mixtures, which were dissolved in olive oil at a dose of 50 mg/kg. Single oral administration of the solution was effected via a feeding tube, and for blood pressure measurement was conducted.

[4] = test system: β-oxidation genes; experiment: Effects on the expression of β-oxidation genes, quantitative RT-PCR; assay type: in vivo, Wistar male rats; details: Example 6, FIGS. 6A/6B; 200 mg/kg peroral three times at 24-hr intervals, 4 hours after final administration
Procedure: Wistar male rats (6-wk old) were purchased from CLEA Japan, Inc. and habituated in the test environment for a week; the animals that were seen to grow normally were subjected to the test. The rats were divided into six groups each consisting of 5 heads. The control group was administered with olive oil only. For the test groups, the high purity sesamin and episesamin obtained in Example 1 were incorporated at varying weight ratios of 10:0, 5:5, 3:7, 1:9 and 0:10 to prepare sesamin/episesamin mixtures, which were suspended in olive oil at a dose of 200 mg/kg. The rats were administered perorally with olive oil or the suspension three times at 24-hr intervals. Four hours after the final administration, the kidney was removed from each rat under anesthetization with Nembutal; after extracting RNA, effects on the expression of 10 β-oxidation genes were investigated by quantitative RT-PCR using TaqMan chemistry (Heid C A, Stevens J, Livak K J, Williams P M, Real time quantitative PCR, Genome Res. 1996 6(10):986-94).
In contrast, each of the groups administered with the sesamin/episesamin mixture experienced more elevated gene expression than the group administered with episesamin alone. The effect of the mixing ratio was somewhat variable from one gene to another but no significant difference was found among the three groups administered with the sesamin/episesamin mixture.

[5] = test system: β-oxidation enzymes in the liver; details: rats, separately administered orally; cited from earlier work
[6] = test system: fatty acid synthases; details: rats, separately administered orally; cited from earlier work
[7] = rat, in vivo, po; cited from earlier work

Structure (SMILES) | percent absorption of episesamin (AUC 0-24 hours divided by relative amount of episesamin administered) [1] | percent absorption of episesamin [2] | changes in blood pressure for 24 hours after the single administration [3] | changes in blood pressure 8 hours after the administration [3] | expression of β-oxidation genes [4] | gene expression and enzymatic activity of β-oxidation enzymes in the liver compared with sesamin [5] | activity for inhibiting fatty acid synthases, sesamin versus episesamin [6] | transfer into organs relative to sesamin [7]
c1cc2c(cc1[C@H]1OC[C@H]3[C@@H]1CO[C@H]3c1ccc3c(c1)OCO3)OCO2 [episesamin] | 72.5% | 59.7% | No significant changes | −6 mmHg | many genes were expressed in increased amounts | markedly increased | no difference between sesamin and episesamin | at least twice as much as that of sesamin
c1cc2c(cc1[C@H]1OC[C@H]3[C@@H]1CO[C@@H]3c1ccc3c(c1)OCO3)OCO2 [sesamin] |  |  | No significant changes | −13 mmHg | hardly rose |  | no difference between sesamin and episesamin | 
